Results: patent US9290536B2, “C4 monomethyl triterpenoid derivatives and methods of use thereof” (Reata Pharmaceuticals, Inc., priority 2011, dated 2016)

Experiments:
[1] = test system: IFNγ-induced NO production in RAW264.7; test: Suppression of IFNγ-induced NO production in RAW264.7 mouse macrophages (Griess reagent, normalized to WST-1 cell viability); type: cell-based; settings: RAW264.7 cells, 2 h pre-treatment with drug (0-200 nM), then IFNγ for 24 h
Procedure: Nitric Oxide Production and Cell Viability. […] On the next day, cells were pre-treated with DMSO or drug (0-200 nM dose range) for 2 hours, and then treated with recombinant mouse IFNγ (R&D Systems) for 24 hours. Nitric Oxide concentration in media was determined using the Griess reagent system (Promega). Cell viability was determined using WST-1 reagent (Roche). IC50 values were determined based on the suppression of IFNγ induced Nitric Oxide production normalized to cell viability.

NQO1-ARE = NQO1-ARE luciferase reporter assay in HuH7 cells (Nrf2 transcriptional activity); type: cell-based; settings: Homo sapiens, Huh-7, 62.5 nM compound, 18 h, Firefly normalized to Renilla, over DMSO vehicle control
Source text: NQO1-ARE Luciferase Reporter Assay.
This assay allows for quantitative assessment of the endogenous activity of the Nrf2 transcription factor in cultured mammalian cells. Expression of Firefly luciferase from NQO1-ARE luciferase reporter plasmid is controlled by binding of Nrf2 to a specific enhancer sequence corresponding to the antioxidant response element (ARE) that was identified in the promoter region of the human NADPH:quinone oxidoreductase 1 (NQO1) gene (Xie et al., 1995). The plasmid was constructed by inserting a sequence:
encompassing the human NQO1-ARE into the pLuc-MCS vector using HindIII/XhoI cloning sites (GenScript Corp., Piscataway, N.J.). The assay is performed in HuH7 cells maintained in DMEM (Invitrogen) supplemented with 10% FBS and 100 U/ml (each) of penicillin and streptomycin. For the assay, cells are plated in 96-well plates at 17,000 cells per well. Twenty four hours later, the cells are co-transfected with 50 ng each of NQO1-ARE reporter plasmid and pRL-TK plasmid using Lipofectamine 2000 transfection reagent (Invitrogen). pRL-TK plasmid constitutively expresses Renilla luciferase and is used as an internal control for normalization of transfection levels. Thirty hours after transfection, the cells are treated with compounds (at concentrations ranging from 0 to 1 μM) for eighteen hours. Firefly and Renilla luciferase activity is assayed by Dual-Glo Luciferase Assay (Promega Corp., Madison, Wis.), the luminescence signal is measured on an L-Max II luminometer (Molecular Devices). Firefly luciferase activity is normalized to the Renilla activity, and fold induction over a vehicle control (DMSO) of normalized Firefly activity is calculated. The fold induction at 62.5 nM concentration is used for comparing relative potencies of compounds to induce Nrf2 transcriptional activity. See Xie et al., 1995, which is incorporated herein by reference.

SMILES	IC50 [1] [nM]	fold induction at 0.0625 µM (NQO1-ARE)
COC(=O)[C@]12CCC(C)(C)C[C@H]1[C@H]1C(=O)C=C3[C@@]4(C)C=C(C#N)C(=O)[C@@H](C)[C@@H]4CC[C@@]3(C)[C@]1(C)CC2 [TX63435]	1	7.2
C[C@@H]1C(=O)C(C#N)=C[C@]2(C)C3=CC(=O)[C@@H]4[C@@H]5CC(C)(C)CC[C@]5(C(=O)NCC(F)(F)F)CC[C@@]4(C)[C@]3(C)CC[C@@H]12 [TX63523]	1	5.6
C[C@@H]1C(=O)C(C#N)=C[C@]2(C)C3=CC(=O)[C@@H]4[C@@H]5CC(C)(C)CC[C@]5(C(=O)n5ccnc5)CC[C@@]4(C)[C@]3(C)CC[C@@H]12 [TX63522]	0.4	4.1
C[C@@H]1C(=O)C(C#N)=C[C@]2(C)C3=CC(=O)[C@@H]4[C@@H]5CC(C)(C)CC[C@]5(C(=O)O)CC[C@@]4(C)[C@]3(C)CC[C@@H]12 [TX63520]	10.1	5.3
C[C@@H]1C(=O)C(C#N)=C[C@]2(C)C3=CC(=O)[C@@H]4[C@@H]5CC(C)(C)CC[C@]5(NC(=O)C(C)(F)F)CC[C@@]4(C)[C@]3(C)CC[C@@H]12 [TX63682]	1.1	5.7
C[C@@H]1C(=O)C(C#N)=C[C@]2(C)C3=CC(=O)[C@@H]4[C@@H]5CC(C)(C)CC[C@]5(CO)CC[C@@]4(C)[C@]3(C)CC[C@@H]12 [TX63545]	0.7	7.2
COC(=O)[C@]12CCC(C)(C)C[C@H]1[C@H]1C(=O)C[C@@H]3[C@@]4(C)C=C(C#N)C(=O)[C@@H](C)[C@@H]4CC[C@@]3(C)[C@]1(C)CC2 [TX63749]	3	2.3
Cc1nnc([C@]23CCC(C)(C)C[C@H]2[C@H]2C(=O)C=C4[C@@]5(C)C=C(C#N)C(=O)[C@@H](C)[C@@H]5CC[C@@]4(C)[C@]2(C)CC3)o1 [TX63616]	0.7	4.4
C[C@@H]1C(=O)C(C#N)=C[C@]2(C)C3=CC(=O)[C@@H]4[C@@H]5CC(C)(C)CC[C@]5(C(=O)N5CCCC5)CC[C@@]4(C)[C@]3(C)CC[C@@H]12 [TX63823]	0.8	–
C[C@@H]1C(=O)C(C#N)=C[C@]2(C)C3=CC(=O)[C@@H]4[C@@H]5CC(C)(C)CC[C@]5(NC(=O)CC(F)(F)F)CC[C@@]4(C)[C@]3(C)CC[C@@H]12 [TX63799]	1.8	–
C[C@@H]1C(=O)C(C#N)=C[C@]2(C)C3=CC(=O)[C@@H]4[C@@H]5CC(C)(C)CC[C@]5(NC(=O)C5CC5)CC[C@@]4(C)[C@]3(C)CC[C@@H]12 [TX63866]	1.4	–
CCOC(=O)[C@]12CCC(C)(C)C[C@H]1[C@H]1C(=O)C=C3[C@@]4(C)C=C(C#N)C(=O)[C@@H](C)[C@@H]4CC[C@@]3(C)[C@]1(C)CC2 [TX63820]	1.5	–
COC(=O)[C@]12CCC(C)(C)C[C@H]1C1=CC[C@@H]3[C@@]4(C)CC(C#N)=C(OC(C)=O)[C@@H](C)[C@@H]4CC[C@@]3(C)[C@]1(C)CC2 [TX63795]	> 200	–
C[C@@H]1C(=O)C(C#N)=C[C@]2(C)C3=CC(=O)[C@]45OC(=O)[C@@]6(CCC(C)(C)C[C@H]64)CC[C@@]5(C)[C@]3(C)CC[C@@H]12 [TX63555]	1.4	6.1
C[C@@H]1C(=O)C(C#N)=C[C@]2(C)[C@H]3CC(=O)[C@@H]4[C@@H]5CC(C)(C)CC[C@]5(C(=O)N5CCOCC5)CC[C@@]4(C)[C@]3(C)CC[C@@H]12 [TX63812]	10.1	–
CC(=O)O[C@]12CCC(C)(C)C[C@H]1[C@H]1C(=O)C=C3[C@@]4(C)C=C(C#N)C(=O)[C@@H](C)[C@@H]4CC[C@@]3(C)[C@]1(C)CC2 [TX63928]	0.6	–
COC(=O)[C@]12CCC(C)(C)C[C@H]1[C@@]1(O)C(=O)C=C3[C@@]4(C)C=C(C#N)C(=O)[C@@H](C)[C@@H]4CC[C@@]3(C)[C@]1(C)CC2 [TX63870]	1.1	–
Cc1noc([C@]23CCC(C)(C)C[C@H]2[C@H]2C(=O)C=C4[C@@]5(C)C=C(C#N)C(=O)[C@@H](C)[C@@H]5CC[C@@]4(C)[C@]2(C)CC3)n1 [TX63787]	0.8	–
COC(=O)[C@]12CCC(C)(C)C[C@H]1[C@H]1C(=O)C=C3[C@@]4(C)C=C(C#N)C(=O)C[C@@H]4CC[C@@]3(C)[C@]1(C)CC2 [TX63614]	11.7	–
C[C@@H]1C(=O)C(C#N)=C[C@]2(C)[C@H]3CC(=O)[C@@H]4[C@@H]5CC(C)(C)CC[C@]5(C(=O)n5ccnc5)CC[C@@]4(C)[C@]3(C)CC[C@@H]12 [TX63811]	0.3	–
C[C@@H]1C(=O)C(C#N)=C[C@]2(C)C3=CC(=O)[C@@H]4[C@@H]5CC(C)(C)CC[C@]5(CCC(=O)O)CC[C@@]4(C)[C@]3(C)CC[C@@H]12 [TX63891]	1.3	–
C[C@@H]1C(=O)C(C#N)=C[C@]2(C)C3=CC(=O)[C@@H]4[C@@H]5CC(C)(C)CC[C@]5(NS(=O)(=O)CC(F)(F)F)CC[C@@]4(C)[C@]3(C)CC[C@@H]12 [TX63818]	0.8	–
CCCCNC(=O)[C@]12CCC(C)(C)C[C@H]1[C@H]1C(=O)C=C3[C@@]4(C)C=C(C#N)C(=O)[C@@H](C)[C@@H]4CC[C@@]3(C)[C@]1(C)CC2 [TX63877]	1.3	–
CCNC(=O)[C@]12CCC(C)(C)C[C@H]1[C@H]1C(=O)C=C3[C@@]4(C)C=C(C#N)C(=O)[C@@H](C)[C@@H]4CC[C@@]3(C)[C@]1(C)CC2 [TX63521]	1.1	–
C[C@@H]1C(=O)C(C#N)=C[C@]2(C)C3=CC(=O)[C@@H]4[C@@H]5CC(C)(C)CC[C@]5(F)CC[C@@]4(C)[C@]3(C)CC[C@@H]12 [TX63936]	1.1	–
Cc1nnc(CC[C@]23CCC(C)(C)C[C@H]2[C@H]2C(=O)C=C4[C@@]5(C)C=C(C#N)C(=O)[C@@H](C)[C@@H]5CC[C@@]4(C)[C@]2(C)CC3)o1 [TX63916]	0.4	–
CC(C)OC(=O)N[C@]12CCC(C)(C)C[C@H]1[C@H]1C(=O)C=C3[C@@]4(C)C=C(C#N)C(=O)[C@@H](C)[C@@H]4CC[C@@]3(C)[C@]1(C)CC2 [TX63819]	2.7	–
